The values that follow come from patent US10555922B2, “Method of treating a dopamine related disorder in a subject by administering levodopa, in combination with a dopamine decarboxylase inhibitor and a catechol-o-methyltransferase inhibitor” (priority 2015, dated 2020).

For data set [1] the following is noted: cited from earlier work.
For data set [2] the following is noted: cited from earlier work. The source holds these as a separate data set.
Data set [3] in a line: Stabilization experiments with LECIGON, accelerated stability study at 25° C. for 12 days. Type of data set: physicochemical. The conditions noted are these: all combinations of Table 6. On the procedure:
HPLC—Agilent 1100 with DAD detector and cooled injector; OpenLAB CDS Chemstation C.01.05 (Agilent Technologies Inc., Santa Clara, Calif., U.S.A.).
As reference product, LECIGON™ having no stabilizing modification was used.
The following stabilizing modifications of the LECIGON™ composition were tested, the corresponding experimental compositions (“Exp.”) in Table 4 above being given within parentheses:
• a) 0.1% ascorbic acid (Exp. 5) • b) 0.5% citrate buffer (Exp. 12) • c) 0.5% citric acid (Exp. 4) 3. Removal of oxygen • nitrogen gas (Exp. 15) 4. Removal of metal ions • 0.05% EDTA (Exp. 3) 5. Combination of reduced pH and anti-oxidant (Exp. 13) 6. Combination of anti-oxidant and removal of oxygen • a) 0.1% ascorbic acid and 0.05% EDTA (Exp. 14) • b) 0.5% citric acid and 0.05% EDTA (Exp. 10) 7. Enclosure in an aluminium bag (Exp. 8).
The results are ranked with respect to reduction of hydrazine (DHPA, RRT 7.1). […] Levodopa was stable in all combinations and is therefore not included in the table. In the table, “Carb” is carbidopa, and “Ent” is entacapone.

For data set [4] the following is noted: intravenous administration (3 mg/kg); cited from earlier work.

For `C[C@@](Cc1ccc(O)c(O)c1)(NN)C(=O)O` [Carbidopa, (−)-L-α-hydrazino-α-methyl-β-(3,4-dihydroxybenzene) propanoic acid monohydrate], the solubility in water result in data set [1] was “slightly soluble in water”.

For the molecule `N[C@@H](Cc1ccc(O)c(O)c1)C(=O)O` [Levodopa, (−)-L-α-amino-β-(3,4-dihydroxybenzene) propanoic acid], the “metabolized to dopamine before levodopa reaches the brain” value in data set [2] (intake of levodopa alone) is recorded as “more than 90%”. Further, in data set [2] (levodopa via DUODOPA gel, same as in a tablet), the bioavailability is given as 81-98%. Moreover, in data set [3], the “Stability of levodopa in the gel combinations” value is “stable”. The solubility in water entry in data set [1] is listed as “slightly soluble in water”.

Consider `Cc1ccc(C(=O)c2cc(O)c(O)c([N+](=O)[O-])c2)cc1` [Tolcapone, (3,4-Dihydroxy-5-nitrophenyl)(4-methylphenyl)methanone], for which, in data set [4], the “elimination half-life (t1/2β)” value is on record as 2.9 h.
